From patent US10208037B2, “Toll-like receptor-7 and -8 modulatory 1H imidazoquinoline derived compounds” (The University of Kansas, priority 2011, dated 2019)
pEC50: −log10 of the molar value.

Legend:
outbred CF-1 mice = test: Immunization of CF-1 mice with bovine α-lactalbumin, antibody ELISA; assay type: in vivo; conditions: relative to α-lactalbumin alone; boost Day 14, bled Day 21
Procedure: FIGS. 10A-10D are graphs illustrating immunoglobulin profiles in outbred CF-1 mice immunized on Day 0 with 50 μg/animal of α-lactalbumin, or α-lactalbumin covalently coupled with 5 equivalents of 8, or α-lactalbumin mixed with 5 equivalents of 7d. Animals (5 per cohort) were boosted once on Day 14 exactly as mentioned above, and bled on Day 21. α-lactalbumin-specific immunoglobulin levels were quantified by standard antibody-capture ELISA, performed in liquid handler-assisted 384-well format.
FIG. 11 is a graph illustrating affinity IgG ELISA showing antibody titer as a function of chaotrope (NaSCN) concentration. IgG titers on the ordinate axis were calculated from absorbance values at 0.25 (which corresponds to […] above that of naïve controls).
All experiments were performed in accordance with animal care protocols approved by the University of Kansas IACUC Committee. […]
A precision 2000 liquid handler (Bio-Tek, Winooski, Vt.) was used for all serial dilution and reagent addition steps, and a Bio-Tek ELx405 384-well plate washer was employed for plate washes; 100 mM phosphate-buffered saline (PBS) pH 7.4, containing 0.1% Tween-20 was used as wash buffer. […] Plates were then read at 450 nm using a SpectraMax M4 device (Molecular Devices, Sunnyvale, Calif.). […]

human PBMCs [1] = test: Immunoassays for IFN-α, IFN-γ, IL-12 and IL-18 in human PBMCs; assay type: cell-based
Procedure: Fresh human peripheral blood mononuclear cells (PBMC) were isolated from human blood obtained by venipuncture with informed consent and as per institutional guidelines on Ficoll-Hypaque gradients as described elsewhere.^53 Aliquots of PBMCs (10^5 cells in 100 µL/well) were stimulated for 12 h with graded concentrations of test compounds. Supernatants were isolated by centrifugation, diluted 1:20, and were assayed in triplicates using a high-sensitivity analyte-specific ELISA kits (PBL Interferon Source, Piscataway, N.J. and R&D Systems, Inc., Minneapolis, Minn.).

Aqueous solubility = assay type: physicochemical
TLR8 = target: T1, TLR8 (Homo sapiens, UniProt Q9NR97); test: TLR8 reporter gene assay (NF-κB induction, HEK-Blue-8 cells), agonism; assay type: cell-based
T1 construct: expressed in transfected cells; host or cells: HEK293 (HEK-Blue-8 cells)
T1 sequence (Q9NR97 27-1041): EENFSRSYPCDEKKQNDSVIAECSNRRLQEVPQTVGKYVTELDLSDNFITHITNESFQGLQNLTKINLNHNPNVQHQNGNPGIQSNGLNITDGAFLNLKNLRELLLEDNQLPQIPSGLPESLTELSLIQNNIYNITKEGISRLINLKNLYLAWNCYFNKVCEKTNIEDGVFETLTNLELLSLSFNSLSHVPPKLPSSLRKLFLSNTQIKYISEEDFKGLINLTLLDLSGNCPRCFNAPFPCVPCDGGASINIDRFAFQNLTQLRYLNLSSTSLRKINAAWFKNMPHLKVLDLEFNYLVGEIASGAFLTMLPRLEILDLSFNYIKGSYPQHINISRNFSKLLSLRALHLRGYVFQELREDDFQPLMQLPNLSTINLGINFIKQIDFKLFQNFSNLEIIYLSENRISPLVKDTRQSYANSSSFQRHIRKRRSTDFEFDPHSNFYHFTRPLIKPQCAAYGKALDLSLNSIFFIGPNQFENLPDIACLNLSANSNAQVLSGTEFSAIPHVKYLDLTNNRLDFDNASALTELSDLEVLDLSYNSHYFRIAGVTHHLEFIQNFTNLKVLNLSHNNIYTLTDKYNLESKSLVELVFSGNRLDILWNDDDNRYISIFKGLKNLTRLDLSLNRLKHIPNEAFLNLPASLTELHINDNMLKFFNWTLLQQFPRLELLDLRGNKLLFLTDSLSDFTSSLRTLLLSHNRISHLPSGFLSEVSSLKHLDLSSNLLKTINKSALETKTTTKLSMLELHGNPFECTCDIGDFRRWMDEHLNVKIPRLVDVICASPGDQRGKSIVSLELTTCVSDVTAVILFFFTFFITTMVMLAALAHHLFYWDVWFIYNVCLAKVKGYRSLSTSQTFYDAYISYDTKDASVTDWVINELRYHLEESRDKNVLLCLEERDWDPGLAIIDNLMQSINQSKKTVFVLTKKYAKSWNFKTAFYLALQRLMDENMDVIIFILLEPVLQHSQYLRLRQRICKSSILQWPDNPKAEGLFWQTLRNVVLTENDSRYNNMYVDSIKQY
Description: (§1) NF-κB induction: The induction of NF-κB was quantified using HEK-Blue-7 cells and HEK-Blue-8 cells as previously described by us.^8,24 HEK293 cells were stably transfected with human TLR7 (or human TLR8), MD2, and secreted alkaline phosphatase (sAP), and were maintained in HEK-Blue™ Selection medium containing zeocin and normocin. Stable expression of secreted alkaline phosphatase (sAP) under control of NF-κB/AP-1 promoters is inducible by the TLR7 (or TLR8) agonists, and extracellular sAP in the supernatant is proportional to NF-κB induction. HEK-Blue cells were incubated at a density of […] in a volume of 80 μL/well, in 384-well, flat-bottomed, cell culture-treated microtiter plates until confluency was achieved, and subsequently graded concentrations of stimuli. sAP was assayed spectrophotometrically using an alkaline phosphatase-specific chromogen (present in HEK-detection medium as supplied by the vendor) at 620 nm.
(§2) The induction of NF-κB was quantified using HEK-Blue-3, HEK-Blue-7 and HEK-Blue-8 cells as previously described by us.^8,24,51 HEK293 cells were stably transfected with human TLR3 (or human TLR7 or human TLR8), MD2, and secreted alkaline phosphatase (sAP), and were maintained in HEK-Blue™ Selection medium containing zeocin and normocin. Stable expression of secreted alkaline phosphatase (sAP) under control of NF-κB/AP-1 promoters is inducible by the TLR3 (or TLR7 or TLR8) agonists, and extracellular sAP in the supernatant is proportional to NF-κB induction. HEK-Blue cells were incubated at a density of ˜10^5 cells/ml in a volume of 80 μl/well, in 384-well, flat-bottomed, cell culture-treated microtiter plates until confluency was achieved, and subsequently graded concentrations of stimuli. sAP was assayed spectrophotometrically using an alkaline phosphatase-specific chromogen (present in HEK-detection medium as supplied by the vendor) at 620 nm.

human PBMCs [2] = test: Proinflammatory cytokine induction in human PBMCs; assay type: cell-based
Procedure: (§3) Aliquots (10^6 cells in 100 μL) of hPBMCs isolated from blood obtained from healthy human donors after informed consent by conventional Ficoll-Hypaque gradient centrifugation were stimulated for 12 h with graded concentrations of test compounds. The supernatant was isolated by centrifugation, diluted 1:20, and cytokines and chemokines were assayed in triplicate using analyte-specific cytokine/chemokine bead array assays as reported by us previously.^74

rabbits = test: Rabbit immunization model using bovine α-lactalbumin as model subunit vaccine; conditions: in vivo
Description: FIG. 18 illustrates ratios of Immune-1/pre-immune (after primary vaccination) and Immune-2/pre-immune (after Boost-1) anti-α-lactalbumin IgG titers in rabbits. FIGS. 19A and 19B are graphs illustrating TLR7 and TLR8 agonistic activities of the imidazoquinoline dimers in human TLR-specific reporter gene assays.
FIG. 27 illustrates ratios of immune-1/pre-immune (after primary vaccination) and Immune-2/pre-immune (after Boost-1) anti-α-lactalbumin IgG titers in rabbits using the hybrids as adjuvants. Also shown are the IMDQ (7d) and PAM2CS, as well as IMDQ (7d)+PAM2CS mixture controls.

TLR7 = target: T2, TLR7 (Homo sapiens, UniProt Q9NYK1); test: TLR7 reporter gene assay (NF-κB induction, HEK-Blue-7 cells), agonism; assay type: cell-based
T2 construct: expressed in transfected cells; host or cells: HEK293 (HEK-Blue-7 cells)
T2 sequence (Q9NYK1 27-1049): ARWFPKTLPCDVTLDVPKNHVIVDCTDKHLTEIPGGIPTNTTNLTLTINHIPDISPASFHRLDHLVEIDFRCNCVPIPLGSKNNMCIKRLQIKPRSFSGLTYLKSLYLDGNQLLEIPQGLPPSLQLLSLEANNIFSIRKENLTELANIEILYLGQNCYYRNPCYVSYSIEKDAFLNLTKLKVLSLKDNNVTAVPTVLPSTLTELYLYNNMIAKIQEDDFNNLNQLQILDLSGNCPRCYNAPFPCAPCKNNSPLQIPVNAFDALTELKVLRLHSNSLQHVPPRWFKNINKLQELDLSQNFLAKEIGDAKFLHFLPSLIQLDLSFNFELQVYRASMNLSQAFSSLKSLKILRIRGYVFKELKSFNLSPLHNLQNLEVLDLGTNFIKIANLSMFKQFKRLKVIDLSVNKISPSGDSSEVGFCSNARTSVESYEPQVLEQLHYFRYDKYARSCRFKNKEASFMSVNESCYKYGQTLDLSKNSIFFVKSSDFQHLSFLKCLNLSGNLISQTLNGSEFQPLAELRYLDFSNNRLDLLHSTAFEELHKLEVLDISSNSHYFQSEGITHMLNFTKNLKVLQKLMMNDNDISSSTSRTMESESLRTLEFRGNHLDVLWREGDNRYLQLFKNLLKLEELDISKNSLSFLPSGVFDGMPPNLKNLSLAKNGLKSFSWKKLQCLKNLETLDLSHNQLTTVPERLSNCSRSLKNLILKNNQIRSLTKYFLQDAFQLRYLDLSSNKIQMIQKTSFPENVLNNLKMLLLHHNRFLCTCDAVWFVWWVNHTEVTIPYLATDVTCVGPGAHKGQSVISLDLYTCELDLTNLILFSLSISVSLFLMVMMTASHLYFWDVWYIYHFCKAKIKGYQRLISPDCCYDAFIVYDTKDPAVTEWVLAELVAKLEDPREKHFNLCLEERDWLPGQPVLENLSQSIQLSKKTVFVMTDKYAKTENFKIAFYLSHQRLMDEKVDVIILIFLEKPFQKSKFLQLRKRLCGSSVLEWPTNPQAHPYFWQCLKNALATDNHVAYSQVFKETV
Description: as §1, §2

[3] = tested on: human peripheral blood mononuclear cells; test: IFN-α induction in human PBMCs (ELISA); assay type: cell-based; conditions: hPBMC, 12 h
Procedure: FIG. 21 is a graph illustrating IFN-α induction by select dimers in human peripheral blood mononuclear cells. IFN-α was assayed by analyte specific ELISA after incubation of hPBMCs with graded concentrations of the test compound for 12 h.
as §3, with “IFN-α was” for “cytokines and chemokines were”, “a high-sensitivity human IFN-α-specific ELISA kit (PBL Interferon Source, Piscataway, N.J.).” for “analyte-specific cytokine/chemokine bead array assays as reported by us previously.^74”

Aqueous solubility (in words) (Aqueous solubility) | TLR8-agonistic activity (in words) (TLR8) | pEC50 (TLR8; Table 1, ND = not detected) | pEC50 (TLR7; Table 1, ND = not detected, read-out: TLR7 Agonism) | Compound | α-lactalbumin-specific antibody titers (outbred CF-1 mice) | Th1 bias (induction of IFN-α, IFN-γ, IL-12, IL-18) (human PBMCs [1]) | Proinflammatory cytokine induction (in words) (human PBMCs [2]) | Adjuvantic activity, anti-α-lactalbumin IgG titers in rabbits (rabbits) | IFN-γ induction (in words) (human PBMCs [1]) | TLR7-agonistic activity (in words) (TLR7) | IFN-α induction (in words) [3]
excellent | – | – | – | CCCCc1nc2c(N)nc3ccccc3c2n1Cc1ccc(CN)cc1 [Compound 7d, 1-(4-(Aminomethyl)benzyl)-2-butyl-1H-imidazo[4,5-c]quinolin-4-amine] | dramatic enhancements in antibody titers | prominent Th1 bias | – | – | – | – | –
– | loss of TLR8-stimulatory activity | – | – | CCCCc1nc2c(N)nc3ccccc3c2n1Cc1ccc(CNC(=O)Cn2cc(CN(CCN(CCN(Cc3cn(CC(=O)NCc4ccc(Cn5c(CCCC)nc6c(N)nc7ccccc7c65)cc4)nn3)Cc3cn(CC(=O)NCc4ccc(Cn5c(CCCC)nc6c(N)nc7ccccc7c65)cc4)nn3)CCN(Cc3cn(CC(=O)NCc4ccc(Cn5c(CCCC)nc6c(N)nc7ccccc7c65)cc4)nn3)Cc3cn(CC(=O)NCc4ccc(Cn5c(CCCC)nc6c(N)nc7ccccc7c65)cc4)nn3)Cc3cn(CC(=O)NCc4ccc(Cn5c(CCCC)nc6c(N)nc7ccccc7c65)cc4)nn3)nn2)cc1 [Compound 43] | – | – | absence of proinflammatory cytokine induction | better than 7d | selective and complete loss of TLR8-associated IFN-γ | retaining in large measure the TLR7-agonistic activity | –
– | displayed both TLR7 and TLR8 agonism | 5.32 | 6.77 | CCCCc1nc2c(N)nc3ccccc3c2n1Cc1ccc(CNC(=O)CCCCCCCCCCC(=O)NCc2ccc(Cn3c(CCCC)nc4c(N)nc5ccccc5c43)cc2)cc1 [Compound 52c, N^1,N^12-bis(4-((4-amino-2-butyl-1H-imidazo[4,5-c]quinolin-1-yl)methyl)benzyl)dodecane Diamide] | – | – | – | – | – | – | most potent
